{"source": "patent US10517851B2", "about": "“Vasopressin-like action enhancer” (KYORIN PHARMACEUTICAL CO., LTD., priority 2015, dated 2019)", "key": {"female rats [1]": {"test_system": "female rats", "assay": "Antidiuretic action in water-loaded rats, urine collected for 2 hours (single agent)", "format": "in vivo, rat", "details": "oral water load 25 mL/kg, FIG. 1 / FIG. 2; for antidiuretic action: intravenous dose series; for reduction of the urinary volume at the maximum: intravenous", "experimental": "A method according to Watanabe et al. (Watanabe et al 2013 Antidiuretic effect of antimuscanrinic agents in rat model depends on C-fibre afferent nerves in the bladder. BJU Int 112(1) 131-6) was carried out with a partial modification. Female rats (10 to 11-week-old, obtained from Charles River Laboratories Japan) were intravenously administered (1 mL/kg) with a vehicle (saline) or imidafenacin ([…]) and subjected to an oral water load (25 mL/kg). After the rats were transferred to Bollmann cages, urine was collected for 2 hours from each rat via a catheter previously inserted and fixed to the bladder apex of the rat (8 rats in each group). The method according to Watanabe et al. (Watanabe et al 2013 Antidiuretic effect of antimuscanrinic agents in rat model depends on C-fibre afferent nerves in the bladder. BJU Int 112(1) 131-6) was carried out with a partial modification. Female rats (10 to 11-week-old, obtained from Charles River Laboratories Japan) were intravenously administered (1 mL/kg) with a vehicle (saline) or desmopressin ([…]) and subjected to an oral water load (25 mL/kg). After the rats were transferred to Bollmann cages, urine was collected for 2 hours from each rat via a catheter previously inserted and fixed to the bladder apex of the rat (8 rats in each group)."}, "female rats [2]": {"test_system": "female rats", "assay": "Effect of mozavaptan (V2 antagonist) on antidiuretic action in water-loaded rats", "format": "in vivo, rat", "experimental": "The method according to Watanabe et al. (Watanabe et al 2013 Antidiuretic effect of antimuscanrinic agents in rat model depends on C-fibre afferent nerves in the bladder. BJU Int 112(1) 131-6) was carried out with a partial modification. Female rats (10 to 11-week-old, obtained from Charles River Laboratories Japan) were intravenously administered with a vehicle (dimethylformamide or saline); mozavaptan (a dose of 0.1 mL/kg of a 30 mg/mL solution); 3 mg/kg of mozavaptan and imidafenacin (10 μg/kg or 300 μg/kg); 3 mg/kg of mozavaptan and desmopressin (0.003 μg/kg or 0.1 μg/kg); or 3 mg/kg of mozavaptan, imidafenacin (10 μg/kg or 300 μg/kg) and desmopressin (0.003 μg/kg or 0.1 μg/kg), and subjected to an oral water load (25 mL/kg). After the rats were transferred to Bollmann cages, urine was collected for 2 hours from each rat via a catheter previously inserted and fixed to the bladder apex of the rat (8 rats in each group)."}, "vasopressin": {"test_system": "vasopressin", "details": "rat; previous report BJU Int 112(1) 131-6; cited from earlier work"}}}
{"smiles": "NC(=O)CC[C@@H]1NC(=O)[C@H](Cc2ccccc2)NC(=O)[C@H](Cc2ccc(O)cc2)NC(=O)CCSSC[C@@H](C(=O)N2CCC[C@H]2C(=O)N[C@H](CCCN=C(N)N)C(=O)NCC(N)=O)NC(=O)[C@H](CC(N)=O)NC1=O", "note": "[desmopressin]", "values": [{"measurement": "antidiuretic action", "setting": "female rats [1]", "result": "dose-dependent manner"}, {"measurement": "reduction of the urinary volume at the maximum", "setting": "female rats [1]", "result": "about 100%"}, {"measurement": "antidiuretic action of desmopressin at the maximum reaction dose in the presence of mozavaptan", "setting": "female rats [2]; desmopressin 0.1 μg/kg with 3 mg/kg of mozavaptan, intravenous, FIG. 4", "result": "recovered"}, {"measurement": "antidiuretic action of desmopressin in the presence of mozavaptan", "setting": "female rats [2]; desmopressin with 3 mg/kg of mozavaptan, intravenous, FIG. 4", "result": "also suppressed"}]}
{"smiles": "Cc1nccn1CCC(C(N)=O)(c1ccccc1)c1ccccc1", "note": "[imidafenacin]", "values": [{"measurement": "antidiuretic action", "setting": "female rats [1]", "result": "dose-dependent manner"}, {"measurement": "reduction of the urinary volume at the maximum", "setting": "female rats [1]", "result": "about 50%"}, {"measurement": "antidiuretic action on addition of imidafenacin to the mozavaptan and desmopressin group", "setting": "female rats [2]; imidafenacin 300 μg/kg added to 3 mg/kg mozavaptan and 0.1 μg/kg desmopressin, FIG. 5", "result": "further enhanced"}, {"measurement": "antidiuretic action of imidafenacin in the presence of mozavaptan", "setting": "female rats [2]; imidafenacin at the maximum reaction dose of 300 μg/kg with 3 mg/kg of mozavaptan, intravenous, FIG. 4", "result": "completely suppressed"}, {"measurement": "release of vasopressin", "setting": "vasopressin", "result": "not affected"}]}
